Experimental data taken from publication PMC11747885, “Potent inhibitors of the human RNA ligase Rlig1 highlights its role in RNA integrity maintenance under oxidative cellular stress” (Chemical Science, 2025).
Values joined by “and” are separate entries in the source; they are usually repeats but may differ in a detail not shown here. Equal values may be shown once. “Also recorded” adds a separate entry of the source. Read-outs that look alike come from different tables or passages of the source. No end group written: not given here.

Columns and labels:
[1] = target: T1, Rlig1-AMP (Homo sapiens, UniProt Q8N999); experiment: Radioactive RNA ligation assay (hit validation, 10 µM test and IC50 determination); format: biochemical; settings: for inhibition in radioactive ligation assay (hit validation): 10 µM compound, 37 °C, 20 min; for inhibition of Rlig1-AMP ligation (urea-PAGE): 10 μM compound, 500 nM Rlig1-AMP, 20 min 37 °C
T1 construct: made in house; host or cells: E. coli BL21 (DE3), pET15b-Rlig1

[2] = tested on: HEK293 cells; experiment: Cell viability assay of HEK293 cells treated with inhibitors (CellTiter-Glo)
[3] = in vitro; settings: human
[4] = target: T1, Rlig1-AMP; experiment: FRET-based high-throughput screening of inhibitors for Rlig1-AMP; format: biochemical
[5] = log(inhibitor) vs. response, variable slope (four parameters)
[6] = sheet HTS hits, MedChemExpress library
[7] = sheet HTS hits, difference of raw data w/o and w enzyme
[8] = HTS hits, MedChemExpress library
[9] = HTS hits, difference of raw data without and with enzyme
[10] = HTS hits, difference of raw data w/o and w enzyme
[11] = HTS hits, normalised value of 1-D Distance

T1 sequence (Q8N999 whole entry): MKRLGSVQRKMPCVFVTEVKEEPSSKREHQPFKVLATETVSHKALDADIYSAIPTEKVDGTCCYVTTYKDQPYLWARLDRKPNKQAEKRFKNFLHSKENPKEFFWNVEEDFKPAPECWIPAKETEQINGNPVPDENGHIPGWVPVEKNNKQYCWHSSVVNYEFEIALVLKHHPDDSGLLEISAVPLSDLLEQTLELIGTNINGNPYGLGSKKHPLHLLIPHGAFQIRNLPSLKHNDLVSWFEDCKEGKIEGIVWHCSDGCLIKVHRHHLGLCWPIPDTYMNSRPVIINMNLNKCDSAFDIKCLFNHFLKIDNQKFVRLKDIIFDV

Compound	Raw data [w Enyzm] ([4]; HTS hits, with enzyme)	Raw data [w/o Enzym] ([4]; HTS hits, without enzyme)	1-D Distance [4, 10]	1-D Distance.npi [4, 11]	other results
CN(C)C/C=C/C(=O)Nc1ccc(C(=O)Nc2cccc(Nc3ncc(Cl)c(-c4c[nH]c5ccccc45)n3)c2)cc1.Cl [Compound 2, THZ1 (Hydrochloride), reference compound]	–	–	–	–	inhibition in radioactive ligation assay (hit validation) [1]: above 70%
Cc1cc(-c2cc(O)ccc2Cl)cc2nnc(Nc3ccc(OCCN4CCCC4)cc3)nc12.Cl [Compound 6, reference compound]	–	–	–	–	inhibition in radioactive ligation assay (hit validation) [1]: above 70%
Cn1nc(-c2ccc(C(F)(F)F)cc2)nc2c(=O)n(C)c(=O)nc1-2 [Compound 11, reference compound]	–	–	–	–	IC50 (in words) ([1]; concentration-dependent radioactive ligation assay): nanomolar range
CN(C)Cc1ccc(-c2cnn3c(-c4cccc(NC(=O)c5cccc(C(F)(F)F)c5)c4)ccnc23)cc1 [Compound 17, reference compound]	–	–	–	–	inhibition in radioactive ligation assay (hit validation) [1]: above 70%
Cc1cc(Nc2ccc(NC(=O)c3ccc(Nc4cccc5ccccc45)cc3)cc2)nc(N)n1 [Compound 44]	–	–	–	–	inhibition of Rlig1-AMP ligation (urea-PAGE) [1]: inactive
Cc1cc(Nc2ccc(NC(=O)c3ccc(Nc4ccnc5[nH]ccc45)cc3)cc2)nc(N)n1 [Compound 46]	–	–	–	–	cytotoxicity (in words) ([2]; HEK293, 24 h, up to 30 μM): comparatively high cytotoxicity; IC50 (Figure 3D: EC50 values for plot; log(inhibitor) vs. response -- Variable slope (four parameters)) ([2]; HEK293 cell viability, fit per plate (3 plates, 4 technical replicates each), highest tested concentration 30 µM): 8.158 µM and 9.993 µM and 11.5211 µM; LogIC50 (log(inhibitor) vs. response -- Variable slope (four parameters)) ([2]; HEK293 cell viability, fit per plate (3 plates, 4 technical replicates each), log of [µM]): 0.9116 and 0.9997 and 1.0615; EC50 ([2]; Homo sapiens, HEK293, 24 h): 9.42 µM; viability at 24 h, 0.234375 µM [3]: 104%; viability at 24 h, 0.46875 µM [3]: 98.9%; viability at 24 h, 0.9375 µM [3]: 97.1%; viability at 24 h, 1.875 µM [3]: 96.8%; viability at 24 h, 3.75 µM [3]: 94.8%; viability at 24 h, 7.5 µM [3]: 64.8%; viability at 24 h, 15 µM [3]: 23.1%; viability at 24 h, 30 µM [3]: 7.96%; inhibition of Rlig1-AMP ligation (urea-PAGE) [1]: Ligation was inhibited; also recorded: inhibited ligase activity; HillSlope (best-fit value) ([1]; four-parameter fit): 6.864; Span (best-fit value) ([1]; four-parameter fit): 90.69; IC50 ([1]; four-parameter fit, n = 3, read-out: IC50 (best-fit value)): 7.1 µM; inhibition at 30 µM ([1]; log Compound [µM] 1.47712, replicates I-III, read-out: percentage inhibition (dose response curve for IC50)): 100%; LogIC50 (best-fit value) ([1]; log of µM, four-parameter fit): 0.8514; Bottom (best-fit value) [1, 5]: 7.468; Top (best-fit value) [1, 5]: 98.16
C/C1=C2/[N-][C@H]([C@H](CC(N)=O)[C@@]2(C)CCC(=O)NC[C@H](C)OP(=O)([O-])O[C@H]2[C@@H](O)[C@@H](n3cnc4cc(C)c(C)cc43)O[C@@H]2CO)[C@]2(C)N=C(/C(C)=C3N=C(/C=C4N=C1[C@@H](CCC(N)=O)C\4(C)C)[C@@H](CCC(N)=O)[C@]\3(C)CC(N)=O)[C@@H](CCC(N)=O)[C@]2(C)CC(N)=O.[CH3-].[Co+3] [Methylcobalamin]	–	–	–	–	1-D Distance.npi [4, 6]: 89.4559; 1-D Distance [4, 7]: 977; Raw data [w Enyzm] ([4]; sheet HTS hits, with enzyme): 4140; Raw data [w/o Enzym] ([4]; sheet HTS hits, without enzyme): 5117
CN(C)c1ccc2nc3ccc(=[N+](C)C)cc-3sc2c1.O.O.O.[Cl-] [Methylene blue (trihydrate)]	6070	–	–	–	1-D Distance.npi [4, 8]: 83.8926; 1-D Distance [4, 9]: 1051
O=C(NCCCCCCCCCC[P+](c1ccccc1)(c1ccccc1)c1ccccc1)c1nn(Cc2ccc(Cl)cc2Cl)c2ccccc12.[Br-] [Mito-LND]	5993	4259	–	–	1-D Distance.npi [4, 8]: 74.0964; 1-D Distance [4, 9]: 1734
Cl.NC(CO)(CO)CCc1ccc(Sc2cccc(OCc3ccccc3)c2)cc1Cl [Mocravimod (hydrochloride)]	8286	8462	–	–	1-D Distance.npi [4, 8]: 104.362; 1-D Distance [4, 9]: 176
COc1cc(/C=C/C(=O)NCC(O)c2ccc(O)cc2)ccc1O (stereo not shown) [N-Feruloyloctopamine]	–	–	–	–	1-D Distance.npi [4, 6]: 70.0499; 1-D Distance [4, 7]: 1918; Raw data [w Enyzm] ([4]; sheet HTS hits, with enzyme): 9094; Raw data [w/o Enzym] ([4]; sheet HTS hits, without enzyme): 11012
NC[C@@H]1O[C@H](O[C@H]2[C@@H](O)[C@H](O[C@@H]3[C@@H](O)[C@H](N)C[C@H](N)[C@H]3O[C@H]3O[C@H](CN)[C@@H](O)[C@H](O)[C@H]3N)O[C@@H]2CO)[C@H](N)[C@@H](O)[C@@H]1O.O=S(=O)(O)O [Neomycin (sulfate)]	7973	8455	482	97.3447	–
CCCCCOc1ccccc1/C(=C\SC)n1ccnc1.Cl [Neticonazole (hydrochloride)]	9255	10970	–	–	1-D Distance.npi [4, 8]: 74.1423; 1-D Distance [4, 9]: 1715
Cl.Cl.Cn1cc(NC(=O)c2cc(NC(=O)CN=C(N)N)cn2C)cc1C(=O)NCCC(=N)N [Netropsin (dihydrochloride)]	8749	–	1774	75.4127	–
CC1CS(=O)(=O)CCN1/N=C/c1ccc([N+](=O)[O-])o1 (stereo not shown) [Nifurtimox]	7893	–	1863	–	–
CCCCCCCCN=c1ccn(CCCCCCCCCCn2ccc(=NCCCCCCCC)cc2)cc1.Cl.Cl [Octenidine (dihydrochloride)]	8818	7318	1500	76.2265	–

Compound	Raw data [w Enyzm] ([4]; HTS hits, with enzyme)	Raw data [w/o Enzym] ([4]; HTS hits, without enzyme)	1-D Distance [4, 10]	1-D Distance.npi [4, 11]	other results
Cl[TeH]1(Cl)(Cl)OCCO1 [Ossirene]	4805	6468	1663	–	–
NC[C@@H]1O[C@H](O[C@H]2[C@@H](O)[C@H](O[C@@H]3[C@@H](O)[C@H](N)C[C@H](N)[C@H]3O[C@H]3O[C@H](CO)[C@@H](O)[C@H](O)[C@H]3N)O[C@@H]2CO)[C@H](N)[C@@H](O)[C@@H]1O.O=S(=O)(O)O [Paromomycin (sulfate)]	8444	9664	1220	82.0351	–
COS(=O)(=O)[O-].C[n+]1c2ccccc2nc2ccccc21 [Phenazine (methylsulfate)]	2478	3897	–	–	1-D Distance.npi [4, 8]: 78.9166; 1-D Distance [4, 9]: 1419
c1cnc(N2CCN(Cc3ccc4c(c3)OCO4)CC2)nc1 [Piribedil]	9369	11071	–	–	1-D Distance [4, 9]: 1702
NCCNc1ccc(NCCN)c2c1C(=O)c1ccncc1C2=O.O=C(O)/C=C\C(=O)O.O=C(O)/C=C\C(=O)O [Pixantrone (dimaleate)]	4061	5199	–	–	1-D Distance.npi [4, 8]: 84.4919; 1-D Distance [4, 9]: 1138
CC(C)c1cccc(C(C)C)c1O [Propofol]	–	–	–	–	1-D Distance [4]: 1959; Raw data [w Enyzm] [4]: 8754; Raw data [w/o Enzym] [4]: 10713
CCC(O)C(=O)[O-].[Na+] (stereo not shown) [Sodium 2-hydroxybutanoate]	8789	10677	1888	73.0807	–
O.O=C1C=CC[C@@H]2[C@H]3CCCN4CCC[C@@H](CN12)[C@@H]34 [Sophocarpine (monohydrate)]	8885	10719	1834	71.833	–
COc1cc(S(=O)(=O)[O-])ccc1O.[K+] [Sulfogaiacol]	–	–	–	–	1-D Distance.npi [4, 6]: 81.4409; 1-D Distance [4, 7]: 1427; Raw data [w Enyzm] ([4]; sheet HTS hits, with enzyme): 8908; Raw data [w/o Enzym] ([4]; sheet HTS hits, without enzyme): 10335
Cn1ncnc2c(=O)n(C)c(=O)nc1-2 [Toxoflavin]	16186	17205	1019	–	1-D Distance.npi ([4]; HTS hits, normalized value (npi)): 89.8188
C/C=C/c1cc(OC)c(OC)cc1OC [alpha-Asarone]	8891	10653	1762	73.1231	–
LL-37, human (TFA)	6495	6396	–	–	1-D Distance.npi [4, 8]: 104.017; 1-D Distance [4, 9]: 99
Lactoferrin (17-41) (acetate) (TKCFQWQRNMRKVRGPPVSCIKRDS; ends and bridges not checked; also: acetate salt; UniProt P02788 36-60, looked up, fragment)	8755	10176	1421	74.4696	–
Plicamycin	9254	11211	–	–	1-D Distance [4, 9]: 1957
Verteporfin	1492	2728	1236	82.5479	–
Vitamin B12	5329	5909	580	94.3021	–
